Results as given in ChEMBL document CHEMBL5465560, “Selectivity Literature for EUbOPEN Chemogenomic Library” (2024).

Key:
[1] = target: MAP/microtubule affinity-regulating kinase 3 (Homo sapiens) (UniProt P27448); experiment: Selectivity interaction (Kinase panel (DSF assay)) EUB0001558a MARK3
[2] = target: T1, Inhibitor of nuclear factor kappa-B kinase subunit beta (Homo sapiens) (UniProt O14920); experiment: Selectivity interaction (KinomeScan (DiscoverX)) EUB0000092b IKBKB; details: at 10 µM
T1 sequence (whole entry): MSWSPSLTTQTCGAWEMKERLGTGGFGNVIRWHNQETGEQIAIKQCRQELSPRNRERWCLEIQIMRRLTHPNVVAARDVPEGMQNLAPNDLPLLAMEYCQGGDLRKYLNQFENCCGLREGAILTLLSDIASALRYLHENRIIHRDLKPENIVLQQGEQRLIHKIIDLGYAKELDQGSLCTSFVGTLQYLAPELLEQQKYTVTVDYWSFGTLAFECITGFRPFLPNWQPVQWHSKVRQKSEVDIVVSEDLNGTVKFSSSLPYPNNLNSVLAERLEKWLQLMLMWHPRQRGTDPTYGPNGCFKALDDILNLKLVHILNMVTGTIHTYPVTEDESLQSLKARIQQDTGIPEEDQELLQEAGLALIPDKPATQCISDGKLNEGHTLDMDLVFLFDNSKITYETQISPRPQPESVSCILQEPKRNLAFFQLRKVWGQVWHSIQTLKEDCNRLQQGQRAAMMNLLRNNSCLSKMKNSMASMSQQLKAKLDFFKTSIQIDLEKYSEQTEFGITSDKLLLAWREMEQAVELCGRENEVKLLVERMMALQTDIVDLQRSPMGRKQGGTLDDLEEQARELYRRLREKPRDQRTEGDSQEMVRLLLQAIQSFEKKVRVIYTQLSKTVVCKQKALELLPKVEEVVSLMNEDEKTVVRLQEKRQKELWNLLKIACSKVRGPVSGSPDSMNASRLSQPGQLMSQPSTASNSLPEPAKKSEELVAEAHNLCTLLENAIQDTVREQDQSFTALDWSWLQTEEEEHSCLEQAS

[3] = target: Rho-associated protein kinase 1 (Homo sapiens) (UniProt Q13464); experiment: Selectivity interaction (KinomeScan (DiscoverX)) EUB0000092b ROCK1; details: at 10 µM
Histamine H1 receptor = Histamine H1 receptor (Homo sapiens, UniProt P35367); experiment: Selectivity interaction (Panel of kinases, GPCRs, ion channels and transporters (enzymatic assay)) EUB0000266bCl HRH1
[4] = target: Ribosomal protein S6 kinase alpha-4 (Homo sapiens) (UniProt O75676); experiment: Selectivity interaction (KinomeScan (DiscoverX)) EUB0000666a RPS6KA4; details: at 10 µM
[5] = target: T2, Aurora kinase A (Homo sapiens) (UniProt O14965); experiment: Selectivity interaction (ActivX KiNativ screen (kinase selectivity in THP-1 cell lysates)) EUB0000639a STK6; type: subcellular; details: lysate, at 0.04 µM
T2 sequence (whole entry): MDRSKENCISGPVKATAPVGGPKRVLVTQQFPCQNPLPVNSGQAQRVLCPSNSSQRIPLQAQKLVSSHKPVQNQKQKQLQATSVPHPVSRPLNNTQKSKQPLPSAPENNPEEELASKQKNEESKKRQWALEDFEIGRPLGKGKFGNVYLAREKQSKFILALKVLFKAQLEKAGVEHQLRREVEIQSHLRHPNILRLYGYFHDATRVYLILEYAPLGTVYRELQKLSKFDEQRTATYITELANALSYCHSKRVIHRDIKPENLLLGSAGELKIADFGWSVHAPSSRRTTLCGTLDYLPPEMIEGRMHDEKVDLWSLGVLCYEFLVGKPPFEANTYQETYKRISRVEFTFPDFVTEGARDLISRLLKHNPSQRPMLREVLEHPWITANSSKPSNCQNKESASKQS

[6] = target: Platelet-derived growth factor receptor alpha (Homo sapiens, UniProt P16234); experiment: Selectivity interaction (Kinase panel (Invitrogen)) EUB0000639a PDGFRA; details: at 200 nM
[7] = target: Protein kinase C theta type (Homo sapiens, UniProt Q04759); experiment: Selectivity interaction (Kinase panel (Invitrogen)) EUB0000639a PRKCQ; details: at 200 nM
[8] = target: Tyrosine-protein kinase JAK1 (Homo sapiens, UniProt P23458); experiment: Selectivity interaction (ActivX KiNativ screen (kinase selectivity in THP-1 cell lysates)) EUB0000639a JAK1; type: subcellular; details: lysate, at 1 µM
[9] = target: Leukocyte tyrosine kinase receptor (Homo sapiens, UniProt P29376); experiment: Selectivity interaction (KinomeScan (DiscoverX)) EUB0001049a LTK; details: at 1 µM
[10] = target: LIM domain kinase 2 (Homo sapiens) (UniProt P53671); experiment: Selectivity interaction (KinomeScan (DiscoverX)) EUB0001049a LIMK2; details: at 1 µM
[11] = target: Mitogen-activated protein kinase kinase kinase kinase 4 (Homo sapiens, UniProt O95819); experiment: Selectivity interaction (Enzymatic assay) EUB0001199aCl MAP4K4
[12] = target: Interferon-induced, double-stranded RNA-activated protein kinase (Homo sapiens) (UniProt P19525); experiment: Selectivity interaction (KinomeScan (DiscoverX)) EUB0000618a EIF2AK2; details: at 10 µM
[13] = target: T3, Ankyrin repeat and protein kinase domain-containing protein 1 (Homo sapiens) (UniProt Q8NFD2); experiment: Selectivity interaction (Ambit KINOMEscan and KiNATiv profiling in Jurkat cells) EUB0000090b ANKK1; type: cell-based; details: at 1 µM
T3 sequence (whole entry): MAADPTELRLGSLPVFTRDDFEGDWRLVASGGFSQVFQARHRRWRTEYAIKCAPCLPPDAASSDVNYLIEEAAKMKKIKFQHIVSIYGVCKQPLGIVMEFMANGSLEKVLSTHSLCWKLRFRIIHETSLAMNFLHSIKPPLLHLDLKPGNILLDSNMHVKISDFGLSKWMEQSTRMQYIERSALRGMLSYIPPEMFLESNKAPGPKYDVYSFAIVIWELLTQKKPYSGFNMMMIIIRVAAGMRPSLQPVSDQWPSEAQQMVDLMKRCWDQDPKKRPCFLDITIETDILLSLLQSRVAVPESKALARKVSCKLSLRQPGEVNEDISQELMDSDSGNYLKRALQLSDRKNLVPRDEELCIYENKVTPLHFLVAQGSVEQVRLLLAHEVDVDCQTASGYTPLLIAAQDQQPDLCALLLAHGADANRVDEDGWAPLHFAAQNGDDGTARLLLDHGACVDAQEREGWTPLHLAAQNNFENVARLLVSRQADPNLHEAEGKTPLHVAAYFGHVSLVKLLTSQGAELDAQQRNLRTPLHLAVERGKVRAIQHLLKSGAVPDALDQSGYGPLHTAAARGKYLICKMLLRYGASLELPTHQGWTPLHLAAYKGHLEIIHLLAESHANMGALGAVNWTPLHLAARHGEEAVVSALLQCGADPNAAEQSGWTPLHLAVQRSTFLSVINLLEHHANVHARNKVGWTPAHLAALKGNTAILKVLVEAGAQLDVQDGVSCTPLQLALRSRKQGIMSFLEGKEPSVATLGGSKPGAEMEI

[14] = target: Serine/threonine-protein kinase 26 (Homo sapiens, UniProt Q9P289); details: PBMC, at 1 µM

Chain of Mitogen-activated protein kinase kinase kinase kinase 4 (O95819 whole entry): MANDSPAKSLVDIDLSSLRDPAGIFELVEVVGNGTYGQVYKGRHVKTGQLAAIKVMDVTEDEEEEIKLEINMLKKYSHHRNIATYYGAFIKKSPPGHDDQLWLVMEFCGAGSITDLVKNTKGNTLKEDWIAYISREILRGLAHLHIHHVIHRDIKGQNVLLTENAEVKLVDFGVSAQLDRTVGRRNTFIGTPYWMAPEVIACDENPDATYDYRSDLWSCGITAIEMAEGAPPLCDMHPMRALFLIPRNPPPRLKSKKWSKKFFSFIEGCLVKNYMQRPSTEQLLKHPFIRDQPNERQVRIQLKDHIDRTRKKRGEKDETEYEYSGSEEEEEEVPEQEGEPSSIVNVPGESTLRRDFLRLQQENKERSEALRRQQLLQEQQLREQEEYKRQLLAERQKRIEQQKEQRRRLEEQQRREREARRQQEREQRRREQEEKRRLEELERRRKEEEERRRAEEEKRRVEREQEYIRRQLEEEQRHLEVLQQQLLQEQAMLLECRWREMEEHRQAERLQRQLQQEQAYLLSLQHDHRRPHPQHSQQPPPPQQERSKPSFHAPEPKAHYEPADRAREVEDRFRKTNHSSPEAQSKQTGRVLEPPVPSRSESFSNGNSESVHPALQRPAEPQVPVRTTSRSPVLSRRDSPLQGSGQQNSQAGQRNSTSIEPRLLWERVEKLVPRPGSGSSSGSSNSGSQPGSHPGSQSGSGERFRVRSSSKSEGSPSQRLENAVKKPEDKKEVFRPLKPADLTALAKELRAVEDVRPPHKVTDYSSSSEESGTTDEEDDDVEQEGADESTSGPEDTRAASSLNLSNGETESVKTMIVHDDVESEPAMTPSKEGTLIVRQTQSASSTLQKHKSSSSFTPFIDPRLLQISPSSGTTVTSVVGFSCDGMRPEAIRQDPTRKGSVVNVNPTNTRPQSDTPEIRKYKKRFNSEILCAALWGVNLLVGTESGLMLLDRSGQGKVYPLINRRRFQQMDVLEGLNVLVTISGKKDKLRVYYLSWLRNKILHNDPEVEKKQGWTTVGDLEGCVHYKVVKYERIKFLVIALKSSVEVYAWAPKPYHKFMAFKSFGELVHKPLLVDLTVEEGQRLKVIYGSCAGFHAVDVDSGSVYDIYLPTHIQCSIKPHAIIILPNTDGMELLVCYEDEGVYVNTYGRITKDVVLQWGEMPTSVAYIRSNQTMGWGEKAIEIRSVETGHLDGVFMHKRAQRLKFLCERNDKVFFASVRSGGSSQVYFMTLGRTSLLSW
Chain of Rho-associated protein kinase 1 (Homo sapiens) (Q13464 2-1354 limits assumed): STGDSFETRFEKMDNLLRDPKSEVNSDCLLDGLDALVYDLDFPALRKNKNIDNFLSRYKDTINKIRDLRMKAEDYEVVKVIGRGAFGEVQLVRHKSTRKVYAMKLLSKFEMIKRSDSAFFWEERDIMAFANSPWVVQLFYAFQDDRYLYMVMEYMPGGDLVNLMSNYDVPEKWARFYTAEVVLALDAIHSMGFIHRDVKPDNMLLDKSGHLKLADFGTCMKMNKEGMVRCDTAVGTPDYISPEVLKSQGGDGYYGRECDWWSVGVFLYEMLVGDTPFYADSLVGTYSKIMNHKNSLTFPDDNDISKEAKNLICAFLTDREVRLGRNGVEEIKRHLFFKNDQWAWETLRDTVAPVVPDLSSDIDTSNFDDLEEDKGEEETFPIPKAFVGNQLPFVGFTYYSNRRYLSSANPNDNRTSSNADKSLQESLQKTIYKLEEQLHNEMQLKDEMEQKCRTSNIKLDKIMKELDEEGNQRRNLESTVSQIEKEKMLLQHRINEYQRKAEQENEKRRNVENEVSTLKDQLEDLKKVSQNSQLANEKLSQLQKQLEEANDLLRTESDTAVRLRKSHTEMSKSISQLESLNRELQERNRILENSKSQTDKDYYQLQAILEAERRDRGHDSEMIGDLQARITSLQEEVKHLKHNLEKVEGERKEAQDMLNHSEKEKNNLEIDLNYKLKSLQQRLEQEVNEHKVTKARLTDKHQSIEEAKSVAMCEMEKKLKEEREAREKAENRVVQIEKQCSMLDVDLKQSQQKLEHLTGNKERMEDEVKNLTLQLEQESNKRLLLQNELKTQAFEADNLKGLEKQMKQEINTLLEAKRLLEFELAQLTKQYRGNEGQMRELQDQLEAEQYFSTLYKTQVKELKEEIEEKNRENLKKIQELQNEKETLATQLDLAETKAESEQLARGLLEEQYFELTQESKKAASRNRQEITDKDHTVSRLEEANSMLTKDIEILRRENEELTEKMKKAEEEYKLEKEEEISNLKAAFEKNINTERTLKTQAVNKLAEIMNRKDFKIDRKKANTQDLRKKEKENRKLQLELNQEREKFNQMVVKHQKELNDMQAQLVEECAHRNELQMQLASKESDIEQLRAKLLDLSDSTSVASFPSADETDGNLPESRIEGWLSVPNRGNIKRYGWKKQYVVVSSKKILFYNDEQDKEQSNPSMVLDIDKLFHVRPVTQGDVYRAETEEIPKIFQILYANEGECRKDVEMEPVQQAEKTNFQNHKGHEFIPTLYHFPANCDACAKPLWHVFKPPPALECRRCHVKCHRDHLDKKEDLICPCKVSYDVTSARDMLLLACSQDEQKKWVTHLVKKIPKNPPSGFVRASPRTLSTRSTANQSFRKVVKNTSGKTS
Chain of MAP/microtubule affinity-regulating kinase 3 (Homo sapiens) (P27448 whole entry, looked up): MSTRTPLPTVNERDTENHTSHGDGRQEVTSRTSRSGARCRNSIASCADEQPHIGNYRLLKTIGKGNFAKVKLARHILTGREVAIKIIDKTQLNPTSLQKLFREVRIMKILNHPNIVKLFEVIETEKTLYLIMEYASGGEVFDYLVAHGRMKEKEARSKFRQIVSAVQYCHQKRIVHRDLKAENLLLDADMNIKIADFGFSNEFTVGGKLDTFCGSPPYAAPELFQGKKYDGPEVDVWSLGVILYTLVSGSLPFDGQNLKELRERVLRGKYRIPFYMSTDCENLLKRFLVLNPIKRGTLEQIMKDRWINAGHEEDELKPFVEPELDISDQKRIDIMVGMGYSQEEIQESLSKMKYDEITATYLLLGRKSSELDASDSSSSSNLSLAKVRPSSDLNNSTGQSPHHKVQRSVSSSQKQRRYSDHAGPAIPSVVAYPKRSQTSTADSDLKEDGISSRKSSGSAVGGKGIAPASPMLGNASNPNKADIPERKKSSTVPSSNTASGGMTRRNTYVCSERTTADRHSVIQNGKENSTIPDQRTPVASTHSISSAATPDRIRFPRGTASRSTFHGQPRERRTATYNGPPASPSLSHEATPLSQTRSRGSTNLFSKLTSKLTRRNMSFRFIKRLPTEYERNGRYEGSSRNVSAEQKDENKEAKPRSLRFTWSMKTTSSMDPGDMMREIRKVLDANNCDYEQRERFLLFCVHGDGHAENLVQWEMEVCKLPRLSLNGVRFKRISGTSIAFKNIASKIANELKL
Chain of Tyrosine-protein kinase JAK1 (P23458 whole entry): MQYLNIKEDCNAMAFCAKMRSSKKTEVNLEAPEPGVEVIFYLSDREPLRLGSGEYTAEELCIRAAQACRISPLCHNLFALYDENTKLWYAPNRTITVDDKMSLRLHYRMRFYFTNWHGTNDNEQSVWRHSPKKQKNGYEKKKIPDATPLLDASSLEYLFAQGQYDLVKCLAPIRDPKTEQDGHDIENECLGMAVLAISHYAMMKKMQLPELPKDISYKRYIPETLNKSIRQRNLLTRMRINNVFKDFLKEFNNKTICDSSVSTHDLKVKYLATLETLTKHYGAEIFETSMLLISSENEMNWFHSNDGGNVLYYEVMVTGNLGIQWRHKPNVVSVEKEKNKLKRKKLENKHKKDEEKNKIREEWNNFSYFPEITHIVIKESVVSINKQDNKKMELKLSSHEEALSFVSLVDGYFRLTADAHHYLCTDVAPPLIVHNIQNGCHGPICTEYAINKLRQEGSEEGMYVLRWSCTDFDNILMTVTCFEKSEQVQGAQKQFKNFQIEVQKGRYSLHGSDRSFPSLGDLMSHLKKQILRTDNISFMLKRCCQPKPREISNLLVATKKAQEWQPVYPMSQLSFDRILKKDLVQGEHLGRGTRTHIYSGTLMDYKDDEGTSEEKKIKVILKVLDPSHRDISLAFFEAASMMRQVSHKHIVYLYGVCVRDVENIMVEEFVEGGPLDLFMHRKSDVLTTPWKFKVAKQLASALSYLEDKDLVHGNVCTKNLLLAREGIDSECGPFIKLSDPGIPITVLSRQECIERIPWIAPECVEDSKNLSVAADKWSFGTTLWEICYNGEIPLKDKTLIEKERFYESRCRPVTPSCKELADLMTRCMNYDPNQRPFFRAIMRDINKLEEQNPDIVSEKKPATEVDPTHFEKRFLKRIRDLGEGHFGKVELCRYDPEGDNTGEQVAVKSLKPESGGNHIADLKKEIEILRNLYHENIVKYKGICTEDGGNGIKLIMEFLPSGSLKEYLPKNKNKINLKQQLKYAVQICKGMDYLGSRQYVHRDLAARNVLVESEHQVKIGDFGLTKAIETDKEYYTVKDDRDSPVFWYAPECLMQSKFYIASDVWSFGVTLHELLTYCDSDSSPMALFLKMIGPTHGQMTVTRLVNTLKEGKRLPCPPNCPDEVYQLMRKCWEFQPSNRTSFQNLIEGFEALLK
Chain of Histamine H1 receptor (P35367 whole entry): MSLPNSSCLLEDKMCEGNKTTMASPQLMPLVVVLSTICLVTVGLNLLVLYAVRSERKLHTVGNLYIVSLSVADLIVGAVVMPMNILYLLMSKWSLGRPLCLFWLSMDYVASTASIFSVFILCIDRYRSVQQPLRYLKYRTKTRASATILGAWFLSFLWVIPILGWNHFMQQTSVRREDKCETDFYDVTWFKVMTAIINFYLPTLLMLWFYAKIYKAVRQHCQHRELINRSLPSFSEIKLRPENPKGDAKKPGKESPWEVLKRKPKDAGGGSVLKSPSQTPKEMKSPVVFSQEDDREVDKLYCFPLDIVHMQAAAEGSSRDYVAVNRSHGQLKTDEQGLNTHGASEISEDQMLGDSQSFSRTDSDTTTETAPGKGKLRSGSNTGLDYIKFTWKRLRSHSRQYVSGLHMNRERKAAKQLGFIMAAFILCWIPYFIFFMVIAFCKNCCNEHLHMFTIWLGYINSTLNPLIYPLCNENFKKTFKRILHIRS

CC(C)(O)[C@H](F)CN1Cc2cc(NC(=O)c3cnn4cccnc34)c(N3CCOCC3)cc2C1=O
dTM [1]: 1.9 K

CCC(=O)N1CCN(c2ccc(-n3c(=O)ccc4cnc5ccc(-c6cnc7ccccc7c6)cc5c43)cc2C(F)(F)F)CC1
% of control [2]: 61% | % of control [3]: 53%

CCn1c(-c2nc3cc(C(=O)N4CCCC(N)C4)ccc3n2C)cc2ccccc21 (stereo not given)
pXC50 (Histamine H1 receptor): < 4.4 M

O=C(NOC[C@H](O)CO)c1ccc(F)c(F)c1Nc1ccc(I)cc1F
% of control [4]: 86%

CC[C@@H]1[C@H](F)C(=O)N[C@@H]1COc1nccc2cc(C(N)=O)c(OC)cc12 [ZIMLOVISERTIB]
% of inhibition [5]: -6.4% | % of inhibition [6]: -0.518% | % of inhibition [7]: 3.66% | % of inhibition [8]: -1.3%

COc1cc(Nc2nc(C)cc(-c3cnn4nc(OC)ccc34)n2)cc(C(F)(F)F)c1
% of control [9]: 91% | % of control [10]: 92%

CN1Cc2nccc(-c3cn(C)nc3-c3ccc(F)cc3)c2C1=O
IC50 [11]: 873 nM

O[C@H]1CC[C@H](Nc2ncc3nc(Nc4c(F)cc(F)cc4F)n([C@H]4CCOC4)c3n2)CC1
% of control [12]: 100%

CN(C)C/C=C/C(=O)Nc1ccc(C(=O)N2CCCC(Nc3ncc(Cl)c(-c4c[nH]c5ccccc45)n3)C2)cc1 (stereo not given)
% of control [13]: 91%

N#Cc1cccc(-c2c[nH]c3ncnc(N4CCOCC4)c23)c1
% of inhibition [14]: 39%
